Assay results published in patent US20130280169A1, “CENTRAL NERVOUS SYSTEM TISSUE-LABELING COMPOSITION, METHOD FOR LABELING CENTRAL NERVOUS SYSTEM TISSUE, AND SCREENING METHOD USING CENTRAL NERVOUS SYSTEM TISSUE-LABELING COMPOSITION” (CANON KABUSHIKI KAISHA, priority 2009, published 2013).

Tests used:
[1] = Excitation and fluorescence wavelength by FL4500 fluorescence spectrophotometer; details: for λem / λex: 10 mg/mL DMSO solution diluted 500-fold with distilled water
[2] = test system: central nervous system tissues of juvenile zebrafish (7 dpf); assay: Labeling the central nervous system tissue of live 7 dpf juvenile zebrafish by immersion in labeling solution
Experimental: Subsequently, the labeling solution 1 in the well was removed and replaced by 1 mL of distilled water. This operation was repeated three times. Then, juvenile zebrafish was removed from the well and embedded in 5% low melting point agarose gel on a slide glass so as to restrict movement, and the state of labeling in the central nervous system tissues were observed from the lateral side of zebrafish by a fluorescence stereomicroscope (manufactured by Leica Microsystems, MZ16FA). Also, the brain nerve tissues were observed from the parietal region by a confocal microscope (manufactured by Carl Zeiss, Inc., Pascal Exciter).

[3] = test system: brain of juvenile zebrafish; details: according to Patent Literature 3; cited from earlier work
[4] = 7 dpf juvenile zebrafish, labeling solution 1 μg/mL, one hour
[5] = aqueous solution, 10 mg/mL DMSO solution diluted 500-fold with distilled water (Table 2)
[6] = juvenile zebrafish, labeling solution 1 μg/mL, one hour (Table 2)
[7] = 5 μM chloroform solution (Examples 30 to 34)
[8] = 7 dpf juvenile zebrafish, labeling solution 1 μg/mL, one hour (Table 3)
[9] = 5 ηM DMSO solution (Examples 35 to 46)

Cn1c(=O)cc2c3c(c(NC4CCCCC4)ccc31)C(=O)c1ccccc1-2 [(8)]
λem ([1]; aqueous solution): 619
λex ([1]; aqueous solution): 599
Labeling property [2, 4]: ++
State of labeling of optic nerve, optic tract, superior colliculus (optic tectum), pituitary gland, tectospinal (tectobulbar) tract and reticular formation ([2]; 7 dpf juvenile zebrafish, one hour, fluorescence stereomicroscope and confocal microscope): intensely labeled

Cn1c(=O)cc2c3c(c(NCc4ccccc4)ccc31)C(=O)c1ccccc1-2 [(9)]
λem ([1]; aqueous solution): 556
λex ([1]; aqueous solution): 480
Labeling property [2, 4]: ++

CCN(CC)c1ccc2cc3c(oc2c1)c(C#N)c(=N)n1c2ccccc2nc31 [(10)]
λem ([1]; aqueous solution): 577
λex ([1]; aqueous solution): 556
Labeling property [2, 4]: ++

CCN(CC)c1ccc2cc3c(oc2c1)c(C#N)c(=O)n1c2ccccc2nc31 [(11)]
λem ([1]; aqueous solution): 576
λex ([1]; aqueous solution): 555
Labeling property [2, 4]: +

CCCCNc1ccc2c3c(cccc13)C(=O)N(CCCC)C2=O [(12)]
λem ([1]; aqueous solution): 551
λex ([1]; aqueous solution): 466
Labeling property [2, 4]: ++

CCN1C(=S)N(c2ccccc2)C(=O)/C1=C/C=C1/Sc2ccccc2N1CC [(14)]
λem ([1]; aqueous solution): 560
λex ([1]; aqueous solution): 530
Labeling property [2, 4]: ++

CCN(CC)c1ccc2cc(-c3nc4ccccc4s3)c(=O)oc2c1 [Compound 15]
Excitation wavelength λex [1, 5]: 469
Fluorescence wavelength λem [1, 5]: 555
Stokes shift λem − λex [1, 5]: 86
Fluorescence sensitivity [2, 6]: ++
Labeling property [2, 6]: ++

COc1ccc2cc(-c3nc4ccccc4[nH]3)c(=N)oc2c1 [Compound 16]
Excitation wavelength λex [1, 5]: 380
Fluorescence wavelength λem [1, 5]: 470
Stokes shift λem − λex [1, 5]: 90
Fluorescence sensitivity [2, 6]: +
Labeling property [2, 6]: +

N=c1oc2ccc3ccccc3c2cc1-c1nc2ccccc2[nH]1 [Compound 17]
Excitation wavelength λex [1, 5]: 410
Fluorescence wavelength λem [1, 5]: 490
Stokes shift λem − λex [1, 5]: 80
Fluorescence sensitivity [2, 6]: +
Labeling property [2, 6]: +

CCN(CC)c1ccc2cc(-c3nc4ccccc4[nH]3)c(=N)oc2c1 [Compound 18]
Excitation wavelength λex [1, 5]: 464
Fluorescence wavelength λem [1, 5]: 514
Stokes shift λem − λex [1, 5]: 50
Fluorescence sensitivity [2, 6]: ++
Labeling property [2, 6]: ++

COc1ccc2cc(-c3nc4ccccc4[nH]3)c(=O)oc2c1 [Compound 20]
Excitation wavelength λex [1, 5]: 380
Fluorescence wavelength λem [1, 5]: 470
Stokes shift λem − λex [1, 5]: 90
Fluorescence sensitivity [2, 6]: +
Labeling property [2, 6]: +

COc1cccc2cc(-c3nc4ccccc4[nH]3)c(=O)oc12 [Compound 22]
Excitation wavelength λex [1, 5]: 360
Fluorescence wavelength λem [1, 5]: 510
Stokes shift λem − λex [1, 5]: 150
Fluorescence sensitivity [2, 6]: +
Labeling property [2, 6]: +

CCN(CC)c1ccc2cc(-c3nc4cc(Cl)ccc4o3)c(=O)oc2c1 [Compound 23]
Excitation wavelength λex [1, 5]: 422
Fluorescence wavelength λem [1, 5]: 476
Stokes shift λem − λex [1, 5]: 54
Fluorescence sensitivity [2, 6]: +
Labeling property [2, 6]: ++

Cc1ccc2oc(=O)c(-c3nc4ccccc4[nH]3)cc2c1 [Compound 24]
Excitation wavelength λex [1, 5]: 380
Fluorescence wavelength λem [1, 5]: 490
Stokes shift λem − λex [1, 5]: 110
Fluorescence sensitivity [2, 6]: +
Labeling property [2, 6]: +

CCCN(CCC)c1ccc2cc(-c3nc4ccccc4[nH]3)c(=O)oc2c1 [Compound 25]
Excitation wavelength λex [1, 5]: 463
Fluorescence wavelength λem [1, 5]: 509
Stokes shift λem − λex [1, 5]: 46
Fluorescence sensitivity [2, 6]: ++
Labeling property [2, 6]: ++

O=c1oc2ccc3ccccc3c2cc1-c1nc2ccccc2[nH]1 [Compound 28]
Excitation wavelength λex [1, 5]: 410
Fluorescence wavelength λem [1, 5]: 540
Stokes shift λem − λex [1, 5]: 130
Fluorescence sensitivity [2, 6]: +
Labeling property [2, 6]: +

O=C1c2ccccc2-c2cc(=O)n(C3CCCCC3)c3ccc(NC4CCCCC4)c1c23 [Compound 29]
Excitation wavelength λex [1, 7]: 547
Fluorescence wavelength λem [1, 7]: 592
Fluorescence sensitivity [2, 8]: +

CCCCn1c(=O)cc2c3c(c(NC4CCCCC4)ccc31)C(=O)c1ccccc1-2 [Compound 30]
Excitation wavelength λex [1, 7]: 548
Fluorescence wavelength λem [1, 7]: 575
Fluorescence sensitivity [2, 8]: +

CCCCC(CC)CNc1ccc2c3c(cc(=O)n2CCCC)-c2ccccc2C(=O)c13 (stereo not shown) [Compound 31]
Excitation wavelength λex [1, 7]: 547
Fluorescence wavelength λem [1, 7]: 574
Fluorescence sensitivity [2, 8]: +

CCCCn1c(=O)cc2c3c(c(NCCC4=CCCCC4)ccc31)C(=O)c1ccccc1-2 [Compound 32]
Excitation wavelength λex [1, 7]: 544
Fluorescence wavelength λem [1, 7]: 573
Fluorescence sensitivity [2, 8]: +

CCCCOCCCNc1ccc2c3c(cc(=O)n2CCCC)-c2ccccc2C(=O)c13 [Compound 33]
Excitation wavelength λex [1, 7]: 544
Fluorescence wavelength λem [1, 7]: 573
Fluorescence sensitivity [2, 8]: +

O=C(O)CCN1C(=O)/C(=C\c2cc(Br)c3c(c2)C2CCCC2N3c2ccc(Br)cc2)SC1=S (stereo not shown) [Compound 34]
Excitation wavelength λex [1, 9]: 474
Fluorescence wavelength λem [1, 9]: 590
Fluorescence sensitivity [2, 8]: +

COc1ccc(N2c3ccc(/C=C4/SC(=S)N(CCC(=O)O)C4=O)cc3C3CCCC32)cc1 (stereo not shown) [Compound 35]
Excitation wavelength λex [1, 9]: 521
Fluorescence wavelength λem [1, 9]: 634
Fluorescence sensitivity [2, 8]: ++

O=C(O)CCN1C(=O)/C(=C\c2ccc3c(c2)C2CCCC2N3Cc2ccccc2)SC1=S (stereo not shown) [Compound 36]
Excitation wavelength λex [1, 9]: 510
Fluorescence wavelength λem [1, 9]: 584
Fluorescence sensitivity [2, 8]: +

O=C(O)CCN1C(=O)/C(=C\c2ccc3c(c2)C2CCCC2N3c2ccccc2)SC1=S (stereo not shown) [Compound 37]
Excitation wavelength λex [1, 9]: 502
Fluorescence wavelength λem [1, 9]: 604
Fluorescence sensitivity [2, 8]: ++

COc1ccc2cc(N3c4ccc(/C=C5/SC(=S)N(CCC(=O)O)C5=O)cc4C4CCCC43)ccc2c1 (stereo not shown) [Compound 38]
Excitation wavelength λex [1, 9]: 521
Fluorescence wavelength λem [1, 9]: 646
Fluorescence sensitivity [2, 8]: +

CN1c2ccc(/C=C3/SC(=S)N(CCC(=O)O)C3=O)cc2C2CCCC21 (stereo not shown) [Compound 39]
Excitation wavelength λex [1, 9]: 517
Fluorescence wavelength λem [1, 9]: 590
Fluorescence sensitivity [2, 8]: ++

CCN1c2ccc(/C=C3/SC(=S)N(CCC(=O)O)C3=O)cc2CC1C (stereo not shown) [Compound 40]
Excitation wavelength λex [1, 9]: 509
Fluorescence wavelength λem [1, 9]: 593
Fluorescence sensitivity [2, 8]: ++

CCn1c2ccccc2c2cc(/C=C3/SC(=S)N(CCC(=O)O)C3=O)ccc21 [Compound 41]
Excitation wavelength λex [1, 9]: 452
Fluorescence wavelength λem [1, 9]: 540
Fluorescence sensitivity [2, 8]: +

CCCN1c2ccc(/C=C3/SC(=S)N(CCC(=O)O)C3=O)cc2C2CCCC21 (stereo not shown) [Compound 42]
Excitation wavelength λex [1, 9]: 519
Fluorescence wavelength λem [1, 9]: 592
Fluorescence sensitivity [2, 8]: ++

CCN1c2ccc(/C=C/C=C3/SC(=S)N(CCC(=O)O)C3=O)cc2C2CCCC21 (stereo not shown) [Compound 43]
Excitation wavelength λex [1, 9]: 564
Fluorescence wavelength λem [1, 9]: 671
Fluorescence sensitivity [2, 8]: ++

CSc1ccc(N2c3ccc(/C=C4/SC(=S)N(CCC(=O)O)C4=O)cc3C3CCCC32)cc1 (stereo not shown) [Compound 44]
Excitation wavelength λex [1, 9]: 518
Fluorescence wavelength λem [1, 9]: 647
Fluorescence sensitivity [2, 8]: ++

CCN1CCc2cc(/C=C3/SC(=S)N(CCC(=O)O)C3=O)ccc21 [Compound 45]
Excitation wavelength λex [1, 9]: 510
Fluorescence wavelength λem [1, 9]: 597
Fluorescence sensitivity ([2]; 7 dpf juvenile zebrafish, labeling solution 45 with 3 μg/mL dye compound, one hour (Table 3)): +

Cc1cc(-c2ccc(/N=N/c3ccc4c(S(=O)(=O)O)cc(S(=O)(=O)O)c(N)c4c3O)c(C)c2)ccc1/N=N/c1ccc2c(S(=O)(=O)O)cc(S(=O)(=O)O)c(N)c2c1O [Evans blue]
Migration of administered dye into the brain confirmed up to [3]: up to 4 dpf

O=C1OC2(c3ccc(O)cc3Oc3cc(O)ccc32)c2ccccc21 [Fluorescein, reference compound]
Migration of administered dye into the brain confirmed up to [3]: ≤ 8 dpf
Labeling property [2, 4]: −

rhodamine 123
Migration of administered dye into the brain confirmed up to [3]: ≤ 5 dpf
